Consider two molecules from patent US8232296B2, “Salt 628” (Astrazeneca AB, priority 2009, dated 2012).

Molecules are shown by their SMILES. Counter-ions that a name gives are not always drawn. Where only a bound is given, the exact number is not on record here.

Data set [1] can be described thus: Solid state stability study (LC and XRPD). In kind it is physicochemical. As to the method:
The solid state stability of compound (I) tosylate Form A was studied under four sets of conditions: at 25° C./desiccated; at 25° C./60% relative humidity (RH); 40° C./75% RH and 60° C./75% RH. Samples were examined (LC and XRPD) after 4, 8 and 12 weeks and chemical and physical stability were evaluated. […] It was concluded that compound (I) tosylate Form A has excellent and advantageous chemical and physical stability in the solid state under pharmaceutically relevant storage conditions.

Data set [2] in a line: Solubility of compound (I) tosylate in various dissolution media with time. In kind it is physicochemical. The conditions noted are these: thermodynamic from solid, 37° C. An excerpt:
Therefore compound (I) tosylate is expected to improve the aqueous solubility of compound (I) for a sufficient period of time to allow enhanced absorption in man. Without wishing to be limited by theory, the enhanced solubility of compound (I) tosylate may arise from a combination of the inherent higher solubility of the compound (I) tosylate, and a continued high solubility when the compound (I) precipitates from solution as amorphous material, in aqueous media. The observed improved solubility may therefore reflect both the solubility of the amorphous material and the solubility of the compound (I) tosylate, which will be present in-vivo in varying ratios following oral administration of compound (I) tosylate as a result of the kinetic balance between dissolution and precipitation of compound (I). […] In Table 2, the columns marked “modification” refer to the form of the solid present in the dissolution medium at the relevant time point indicated. The data in Table 2 indicate that the solubility remains high for at least 3 hours, particularly at low pH, representative of the pH found in the stomach.
Solubility was determined in 0.1 M HCl at pH 1.0, 0.2 M phosphate buffer at pH 3, 0.2 M phosphate buffer at pH 5.0, 0.2 M phosphate buffer at pH 6.5 and 0.2 M phosphate buffer at pH 8.
Typically about 4 mg of test sample was added to a 1 ml Scantec glass tube. The experiment was started on addition of 800 μl of preheated test media using an automated Tecon robot system (Genesis Freedom 150). Incubation was at 37° C., in a thermoblock, shaken at 600 rpm. Samples were withdrawn after 1 hour, 3 hours and 24 h, triplicate samples for each media. The supernatant liquid was withdrawn from samples and filtered using a Whatman GF/B filter and diluted prior to analysis by LC (Agilent 1100 series with X Terra MSC18 column). The remaining solid in the sample tubes was characterised using XRPD.

Data set [3] can be described thus: Dissolution in 900 ml of 0.1 M HCl (pH 1), USP apparatus 2. In kind it is physicochemical. To be noted: 79 mg (corresponding to 60 mg free base) alone in a capsule; 900 ml 0.1 M HCl, 75 rpm, 37° C. The procedure:
[…] The dissolution was measured in 900 ml of 0.1 M HCl (pH 1) and using a USP dissolution apparatus 2 (paddle) at 75 rpm and 37° C. in a fully automated system, Zymark Multidose G3.
The dissolution profile of tablet formulations A and B in Table 7 were determined in 900 ml of 0.1 M HCl (pH 1) and using a USP dissolution apparatus 2 (paddle) at 75 rpm and 37° C. in a fully automated system, Zymark Multidose G3.

Data set [4] can be described thus: Oral bioavailability study in the dog. It is filed as in vivo, Beagle dogs. To be noted: Beagle, plasma. As to the method: Beagle dogs (three dogs for each formulation) were administered orally with Compound (I) tosylate form A (dose equivalent to 1.0 mg/kg compound (I) free base) in a gelatine capsule or an aqueous suspension of 0.8 mg/kg crystalline compound (I) free base suspended in water together with 1.2% w/w Avicel and 0.1% w/w Polysorbate 80.
Accordingly the bioavailability of compound (I) tosylate Form A was about 3 times higher than the free base.

Data set [5] in a line: Solubility of salts of compound (I) after 1 hour in 0.1 M HCl (Zymark Multidose G3, UV 337 nm). The conditions noted are these: after 1 hour in 900 ml of 0.1 M HCl, 75 rpm, 37° C.
Method: The solubility (mg/ml) shown in Table 1 was measured after 1 hour in 900 ml of 0.1 M HCl and at 75 rpm and 37° C. using a Zymark Multidose G3 system. Analysis was made by UV spectrophotometer with a detection wavelength of 337 nm.
Data set [6] in a line: Humidity sorption by gravimetrical vapour sorption (GVS). In kind it is physicochemical. To be noted: at 80% relative humidity (RH). The procedure: As such, compound (I) tosylate Form A is right at the border between slightly hygroscopic and non hygroscopic, according to the criteria defined in the European Pharmacopoeia.
The gravimetric responses of test samples to changes in humidity were investigated using a SGA 100 (VTI Corporation) Gravimetrical Vapour Sorption (GVS) instrument with the following features:
Dry to 90% RH and back, in steps of, for example, 10% RH.
Equilibrium condition: <0.01 weight-% per 10 minutes (<0.001 weight-%/min)
Approximately 5 mg of the test sample was placed in the cup and evaluated.

Data set [7] concerns the target T1, Human Neutrophil Elastase (HNE) (Homo sapiens, UniProt P08246).
T1 construct: Human Neutrophil Elastase (HNE) purified from serum (Calbiochem art. 324681); purchased Calbiochem 324681; host or cells: purified from serum (so in the source); natural human source, not recombinant
T1 sequence (P08246 30-247 limits assumed): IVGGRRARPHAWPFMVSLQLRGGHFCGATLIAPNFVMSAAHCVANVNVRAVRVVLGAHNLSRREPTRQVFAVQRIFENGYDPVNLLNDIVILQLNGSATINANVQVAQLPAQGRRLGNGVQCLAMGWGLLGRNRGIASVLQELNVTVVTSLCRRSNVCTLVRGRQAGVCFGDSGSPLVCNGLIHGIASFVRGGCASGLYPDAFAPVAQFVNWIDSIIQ
Put plainly: Human Neutrophil Elastase Quenched-FRET assay. The conditions noted are these: free base dissolved in DMSO; n=26; read-out: IC50 for inhibition of human neutrophil elastase activity. It is filed as biochemical. As to the method: The assay uses Human Neutrophil Elastase (HNE) purified from serum (Calbiochem art. 324681; Ref. Baugh, R. J. et al., 1976, Biochemistry. 15, 836-841). […] The protease substrate used was Elastase Substrate V Fluorogenic, MeOSuc-AAPV-AMC (Calbiochem art. 324740; Ref. Castillo, M. J. et al., 1979, Anal. Biochem. 99, 53-64). The substrate was stored in dimethyl sulfoxide (DMSO) at −20° C. The assay additions were as follows: Test compounds and controls were added to black 96-well flat-bottom plates (Greiner 655076), 1.0 μL in 100% DMSO, followed by 30 μL HNE in assay buffer with 0.01% Triton (trade mark) X-100 detergent. The assay buffer constitution was: 100 mM Tris(hydroxymethyl)aminomethane (TRIS) (pH 7.5) and 500 mM NaCl. The enzyme and the compounds were incubated at room temperature for 15 minutes. Then 30 μl substrate in assay buffer was added. The assay was incubated for 30 minutes at room temperature. The concentrations of HNE enzyme and substrate during the incubation were 1.7 nM and 100 μM, respectively. The assay was then stopped by adding 60 μl stop solution (140 mM acetic acid, 200 mM sodium monochloroacetate, 60 mM sodium acetate, pH 4.3). Fluorescence was measured on a Wallac 1420 Victor 2 instrument at settings: Excitation 380 nm, Emission 460 nm. IC50 values were determined using Xlfit curve fitting using model 205.

Turning to `Cc1c(-c2ccnn2C)cc(C(=O)NCc2ccc(S(C)(=O)=O)cn2)c(=O)n1-c1cccc(C(F)(F)F)c1` [compound (I) tosylate Form A, 6-methyl-5-(1-methyl-1H-pyrazol-5-yl)-N-{[5-(methylsulfonyl)pyridin-2-yl]methyl}-2-oxo-1-[3-(trifluoromethyl)phenyl]-1,2-dihydropyridine-3-carboxamide 4-methylbenzenesulfonate], the “solid state chemical and physical stability” value in data set [1] (25° C./desiccated, 25° C./60% RH, 40° C./75% RH, after 4, 8 and 12 weeks) is “no significant chemical or physical changes were observed”; in data set [1] (stressed 60° C./75% RH condition, 4, 8 and 12 weeks), “some potential chemical degradation”. The solubility at 1 h in data set [2] (aqueous buffer, 0.2 M Phosphate buffer pH 3.0, 1 h) is 493 ± 97 µM; in data set [2] (aqueous buffer, 0.2 M Phosphate buffer pH 5.0, 1 h) it was 490 ± 42 µM; in data set [2] (aqueous buffer, 0.2 M Phosphate buffer pH 6.5, 1 h), 416 ± 48 µM; in data set [2] (aqueous buffer, 0.2 M Phosphate buffer pH 8, 1 h), 412 ± 29 µM; in data set [2] (simulated gastric fluid, 0.1 M HCl pH 1.0, 1 h) it was 1530 ± 129 µM. Further, the solubility at 3 h is 492 ± 115 µM in data set [2] (aqueous buffer, 0.2 M Phosphate buffer pH 3.0, 3 h); 460 ± 54 µM in data set [2] (aqueous buffer, 0.2 M Phosphate buffer pH 5.0, 3 h); 363 ± 86 µM in data set [2] (aqueous buffer, 0.2 M Phosphate buffer pH 6.5, 3 h); 240 ± 35 µM in data set [2] (aqueous buffer, 0.2 M Phosphate buffer pH 8, 3 h); 1100 ± 145 µM in data set [2] (simulated gastric fluid, 0.1 M HCl pH 1.0, 3 h). For the same molecule, the solubility at 24 h in data set [2] (aqueous buffer, 0.2 M Phosphate buffer pH 3.0, 24 h) was 11.8 ± 0.9 µM; in data set [2] (aqueous buffer, 0.2 M Phosphate buffer pH 5.0, 24 h), 12.2 ± 0.6 µM; in data set [2] (aqueous buffer, 0.2 M Phosphate buffer pH 6.5, 24 h), 10.1 ± 0.8 µM; in data set [2] (aqueous buffer, 0.2 M Phosphate buffer pH 8, 24 h) it was 8.4 ± 0.7 µM; in data set [2] (simulated gastric fluid, 0.1 M HCl pH 1.0, 24 h) it was 58.4 ± 1.2 µM. Moreover, the “dissolved within 30 minutes” value in data set [3] is listed as < 65%. Further, in data set [4] (gelatine capsule, dose equivalent to 1.0 mg/kg compound (I) free base), the bioavailability was ~38%. Besides, the “Solubility” value in data set [5] (4-methylbenzenesulfonate) was 1200 µg/mL. Moreover, the humidity uptake result in data set [6] is “around 0.2%”.

Regarding `Cc1c(-c2ccnn2C)cc(C(=O)NCc2ccc(S(C)(=O)=O)cn2)c(=O)n1-c1cccc(C(F)(F)F)c1` [compound (I), 6-methyl-5-(1-methyl-1H-pyrazol-5-yl)-N-{[5-(methylsulfonyl)pyridin-2-yl]methyl}-2-oxo-1-[3-(trifluoromethyl)phenyl]-1,2-dihydropyridine-3-carboxamide], in data set [7], the IC50 was found to be 0.012 µM. Further, in data set [4] (aqueous suspension of 0.8 mg/kg crystalline free base (1.2% w/w Avicel, 0.1% w/w Polysorbate 80)), the bioavailability was ~12%. In addition, the “Solubility” value in data set [5] (listed as Compound (I) free base) was 40 µg/mL.
